Laboratory results: PubChem BioAssay (NCI)
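Five compound concentrations were applied to cells in 96-well plates for 48 hours; endpoints were derived by simple linear interpolation of the resulting dose-response curve. Here, GI50 denotes the concentration required for 50% inhibition of growth. The concentration for full growth arrest is given as TGI.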

Assays:
Assay in all cases: NCI anticancer screen, dose series, 48 h
HT29 colon = tested on: HT29 colon
NCI-H23 lung = tested on: NCI-H23 lung
SW-620 colon = tested on: SW-620 colon
SK-MEL-5 melanoma = tested on: SK-MEL-5 melanoma
RXF 393 renal = tested on: RXF 393 renal
LOX IMVI melanoma = tested on: LOX IMVI melanoma
RPMI-8226 leukemia = tested on: RPMI-8226 leukemia
SF-539 CNS = tested on: SF-539 CNS
K-562 leukemia = tested on: K-562 leukemia
T-47D breast = tested on: T-47D breast

| SMILES | GI50 (HT29 colon) [µM] | TGI (HT29 colon) [µM] | GI50 (NCI-H23 lung) [µM] | TGI (NCI-H23 lung) [µM] | GI50 (SW-620 colon) [µM] | TGI (SW-620 colon) [µM] | GI50 (SK-MEL-5 melanoma) [µM] | TGI (SK-MEL-5 melanoma) [µM] | GI50 (RXF 393 renal) [µM] | TGI (RXF 393 renal) [µM] | GI50 (LOX IMVI melanoma) [µM] | TGI (LOX IMVI melanoma) [µM] | GI50 (RPMI-8226 leukemia) [µM] | TGI (RPMI-8226 leukemia) [µM] | GI50 (SF-539 CNS) [µM] | TGI (SF-539 CNS) [µM] | GI50 (K-562 leukemia) [µM] | TGI (K-562 leukemia) [µM] | GI50 (T-47D breast) [µM] | TGI (T-47D breast) [µM] |
| --- | --- | --- | --- | --- | --- | --- | --- | --- | --- | --- | --- | --- | --- | --- | --- | --- | --- | --- | --- | --- |
| COc1c2ccccc2c(O)c2c(=O)c(C(=O)O)cn(C)c12 | > 100 | > 100 | > 100 | > 100 | > 100 | > 100 | > 100 | > 100 | 80.3 | > 100 | > 100 | > 100 | > 100 | > 100 | 35.9 | > 100 | > 100 | > 100 | > 100 | > 100 |
| Nc1ccn([C@H]2C[C@@H](O)[C@@H](CO)S2)c(=O)n1 | > 100 | > 100 | > 100 | > 100 | > 70.1 | > 100 | > 42.3 | > 100 | > 39.1 | > 100 | > 100 | > 100 | > 100 | > 100 | > 100 | > 100 | > 100 | > 100 | > 100 | > 100 |
| O=C(Nc1cnn2ccc(N3CCC[C@@H]3c3cc(F)ccc3F)nc12)N1CC[C@H](O)C1 | > 100 | > 100 | > 100 | > 100 | > 100 | > 100 | > 100 | > 100 | > 100 | > 100 | > 100 | > 100 | > 100 | > 100 | > 100 | > 100 | > 100 | > 100 | > 100 | > 100 |
| CC[N+](CC)=c1ccc2nc3c(cc(NCc4ccccc4)c4ccccc43)oc-2c1 | 0.189 | 0.773 | 0.148 | 0.352 | 0.302 | 1.4 | 0.147 | 0.28 | 0.781 | 2.12 | 0.127 | 0.299 | 0.0949 | 0.539 | 4.19 | 21.2 | 0.121 | 0.724 | 0.337 | 2.3 |
| O=C1/C(=C/c2ccccc2)SC(=Nc2ccccc2)N1Nc1ccccc1 | 10.8 | > 100 | 22.6 | > 100 | 17.6 | > 100 | 14.4 | 28.8 | 8.44 | 30 |  |  | 3.94 | 27.4 | 27.2 | 99.5 | 6.08 | > 100 | 5.41 | > 100 |
| C/C=C(\C)C(=O)O[C@@H]1C(O)[C@H]2OC(COC(=O)CCC(=O)CCCCCC[C@H](CCCCC)O[C@@H]3OC(C)[C@H](OC(C)=O)C(O)[C@H]3O2)[C@H]1OC(=O)/C=C/c1ccccc1 (some centres not stated) | < 0.01 | 0.652 | 0.293 | 62.3 | < 0.0114 | > 60 | < 0.01 |  | < 0.01 | 4.99 |  |  | < 0.01 | 9.35 | < 0.01 | 1.96 | < 0.01 | > 100 | < 0.01 | 0.761 |
| COc1ccc2nc(NCCCNCCO)c3sc4ccc(F)cc4c(=O)c3c2c1 | 1.58 | 3.23 | 1.73 | 3.27 | 1.53 | 3.04 | 1.73 | 3.14 | 1.26 | 2.61 | 1.48 | 2.9 |  |  | 1.71 | 3.18 |  |  | 1.68 | 3.93 |
| N#C/C(=C\c1ccc(Br)cc1)n1nnc2cccc(F)c21 |  |  | 1.43 | 3.07 | 0.475 | 1.94 | 1.41 | 2.75 | 1.08 | 2.64 | 0.614 | 1.92 | 0.416 | 4.25 | 1.86 | 3.45 | 0.386 | > 100 | 1.08 | 4.44 |
| COc1cc2c3c(n(CCN)c(=O)c2cc1OC)-c1cc2c(cc1C3=O)OCO2 |  |  | 0.0788 | 1.06 | 0.0383 | 2.29 | < 0.01 | 0.0975 | 1.54 | 4.06 | 0.235 |  | < 0.0159 | 0.303 | 0.766 | 2.74 | 0.0969 | > 100 | 0.143 | 1.36 |
| O=C1c2cccnc2-c2nc(/C=C/c3ccccc3)cc3c2c1nc1ccccc13 | 1.87 | 3.97 | 1.6 | 3.58 |  |  |  |  | 14.8 | 37.1 | 2.76 | 6.92 | 1.2 | 5.12 | 3.02 | 7.77 | 1.43 | 9.1 | 6.16 | > 78.7 |
